According to patent publication US4049809A, “Solution of a oxazepine for oral or parenteral administration” (priority 1976, dated 1977):
Values after ≈ are worked out from the molar mass of the structure shown. Where two headings read alike, the source gives them in different places.

Experiments:
[1] = Toxicity of hydrolysis product (statement)
[2] = Stability of solutions: lack of precipitation of the hydrolysis product; type: physicochemical; conditions: in the new solutions; below this concentration
Text: (§1) The favorable stability of the oral and parenteral solutions of this invention have been established in numerous tests. The criterion of stability being the lack of precipitation of the hydroylsis product 2-chloro-dibenz[b,f][1,4]oxazepin-11(1OH)-one. […]

[3] = Solubility and stability in water and near neutral/basic liquids; type: physicochemical
[4] = Third stability study, parenteral solution 20 mg/ml; type: physicochemical; conditions: 20 mg/ml parenteral solution
Protocol: The favorable stability of the oral and parenteral solutions of this invention have been established in numerous tests. The criterion of stability being the lack of precipitation of the hydroylsis product 2-chloro-dibenz[b,f][1,4]oxazepin-11(1OH)-one. […] Three such studies follow:
In the third test a parenteral solution of the active ingredient at a concentration of 20 mg/ml was prepared as described in the second stability study.

[5] = Second stability study, parenteral solution 15 mg/ml; type: physicochemical; conditions: 70% propylene glycol, pH 6.0
Text: as §1

[6] = Crystallization/solubility behaviour with and without Polysorbate 80; type: physicochemical
[7] = type: physicochemical; conditions: 10 mg/ml, pH 6.0, 15 months
Text: as §1

Compound: O=C1Nc2ccccc2Oc2ccc(Cl)cc21 [2-chloro-dibenz[b,f][1,4]oxazepin-11(10H)-one]
- Toxicity [1]: nontoxic
- Concentration at which crystallization of hydrolysis product does not occur [2]: below 500 mcg/ml
- Solubility in water [3]: extremely insoluable

Compound: CN1CCN(C2=Nc3ccccc3Oc3ccc(Cl)cc32)CC1 [2-chloro-11-(4-methyl-1-piperazinyl)-dibenz[b,f][1,4]oxazepine]
- Hydrolysis Product ([4]; 42° C, 1 Month): 146 µg/mL
- Potency ([4]; 42° C, 1 Month): 21.8 mg/mL (≈ 66.5 mM)
- Hydrolysis Product ([4]; 42° C, 2 Months): 232 µg/mL
- Potency ([4]; 42° C, 2 Months): 20.5 mg/mL (≈ 62.5 mM)
- Hydrolysis Product ([4]; 42° C, 4 Months): 436 µg/mL
- Potency ([4]; 42° C, 4 Months): 20.2 mg/mL (≈ 61.6 mM)
- Hydrolysis Product ([4]; 56° C, 1 Month): 374 µg/mL
- Potency ([4]; 56° C, 1 Month): 20.6 mg/mL (≈ 62.8 mM)
- Hydrolysis Product ([4]; 56° C, 2 Months): 732 µg/mL
- Potency ([4]; 56° C, 2 Months): 19.4 mg/mL (≈ 59.2 mM)
- Hydrolysis Product ([4]; 56° C, 2 Weeks): 185 µg/mL
- Potency ([4]; 56° C, 2 Weeks): 21.0 mg/mL (≈ 64.1 mM)
- Hydrolysis Product ([4]; 70° C, 1 Week): 480 µg/mL
- Physical Appearance ([4]; 70° C, 1 Week): Precipitate
- Potency ([4]; 70° C, 1 Week): 20.7 mg/mL (≈ 63.1 mM)
- Hydrolysis Product ([4]; 70° C, 2 Weeks): 623 µg/mL
- Potency ([4]; 70° C, 2 Weeks): 20.6 mg/mL (≈ 62.8 mM)
- Hydrolysis Product ([4]; Fresh): 33.0 µg/mL
- Physical Appearance ([4]; Fresh): Clear
- Potency ([4]; Fresh): 21.6 mg/mL (≈ 65.9 mM)
- Hydrolysis Product ([4]; Room Temp., 2 Months): 62.7 µg/mL
- Potency ([4]; Room Temp., 2 Months): 21.1 mg/mL (≈ 64.4 mM)
- Hydrolysis Product ([4]; Room Temp., 4 Months): 78 µg/mL
- Potency ([4]; Room Temp., 4 Months): 22.3 mg/mL (≈ 68 mM)
- Hydrolysis Product ([4]; Room Temp., 6 Months): 116 µg/mL
- Potency ([4]; Room Temp., 6 Months): 20.8 mg/mL (≈ 63.5 mM)
- Hydrolysis Product ([4]; Room Temp., 11 Months): 160 µg/mL
- Potency ([4]; Room Temp., 11 Months): 20.7 mg/mL (≈ 63.1 mM)
- Hydrolysis Product ([4]; Room Temp., 13 Months): 184 µg/mL
- Potency ([4]; Room Temp., 13 Months): 20.6 mg/mL (≈ 62.8 mM)
- Hydrolysis Product ([4]; Room Temp., 18 Months): 340 µg/mL
- Potency ([4]; Room Temp., 18 Months): 20.5 mg/mL (≈ 62.5 mM)
- Solubility in liquids having a basic or near neutral pH ([3]; basic or near neutral pH): low solubility
- Solubility in water [3]: low solubility
- Hydrolysis Product ([5]; 42° C, 1 Month): 124 µg/mL
- Potency ([5]; 42° C, 1 Month): 16.0 mg/mL (≈ 48.8 mM)
- Hydrolysis Product ([5]; 42° C, 2 Months): 192 µg/mL
- Potency ([5]; 42° C, 2 Months): 14.5 mg/mL (≈ 44.2 mM)
- Hydrolysis Product ([5]; 42° C, 4 Months): 340 µg/mL
- Potency ([5]; 42° C, 4 Months): 15.5 mg/mL (≈ 47.3 mM)
- Hydrolysis Product ([5]; 56° C, 1 Month): 320 µg/mL
- Potency ([5]; 56° C, 1 Month): 16.0 mg/mL (≈ 48.8 mM)
- Hydrolysis Product ([5]; 56° C, 2 Months): 580 µg/mL
- Potency ([5]; 56° C, 2 Months): 14.5 mg/mL (≈ 44.2 mM)
- Hydrolysis Product ([5]; 56° C, 2 Weeks): 163 µg/mL
- Potency ([5]; 56° C, 2 Weeks): 15.3 mg/mL (≈ 46.7 mM)
- Hydrolysis Product ([5]; 70° C, 1 Week): 370 µg/mL
- Physical Appearance ([5]; 70° C, 1 Week): Precipitate
- Potency ([5]; 70° C, 1 Week): 15.0 mg/mL (≈ 45.8 mM)
- Hydrolysis Product ([5]; 70° C, 2 Weeks): 467 µg/mL
- Potency ([5]; 70° C, 2 Weeks): 14.8 mg/mL (≈ 45.1 mM)
- Hydrolysis Product ([5]; Fresh): 26 µg/mL
- Physical Appearance ([5]; Fresh): Clear
- Potency ([5]; Fresh): 16.0 mg/mL (≈ 48.8 mM)
- Hydrolysis Product ([5]; Room Temp., 2 Months): 55 µg/mL
- Potency ([5]; Room Temp., 2 Months): 15.4 mg/mL (≈ 47 mM)
- Hydrolysis Product ([5]; Room Temp., 4 Months): 67 µg/mL
- Potency ([5]; Room Temp., 4 Months): 15.6 mg/mL (≈ 47.6 mM)
- Hydrolysis Product ([5]; Room Temp., 6 Months): 94 µg/mL
- Potency ([5]; Room Temp., 6 Months): 15.6 mg/mL (≈ 47.6 mM)
- Hydrolysis Product ([5]; Room Temp., 11 Months): 142 µg/mL
- Potency ([5]; Room Temp., 11 Months): 15.4 mg/mL (≈ 47 mM)
- Hydrolysis Product ([5]; Room Temp., 13 Months): 144 µg/mL
- Potency ([5]; Room Temp., 13 Months): 15.1 mg/mL (≈ 46.1 mM)
- Hydrolysis Product ([5]; Room Temp., 18 Months): 260 µg/mL
- Potency ([5]; Room Temp., 18 Months): 14.3 mg/mL (≈ 43.6 mM)
- Effect of Polysorbate 80 on solubility level in 70% aqueous propylene glycol ([6]; 70% aqueous propylene glycol with Polysorbate 80): raises the solubility level
- Effect of Polysorbate 80 on crystallization during intramuscular administration ([6]; 70% aqueous propylene glycol with Polysorbate 80 (about 2% to about 10%)): eliminates the crystallization
- Crystallization when parenterally administered to body fluids ([6]; body fluids, pH about 7.0): exhibits a tendency to crystallize
- Crystallization from neutral or basic media ([6]; neutral or basic media): crystallizes from neutral or basic media
- Precipitation on dilution with non-acidic foods or beverages ([6]; oral concentrate without polysorbate 80): precipitates on dilution
- Hydrolysis Product ([7]; 50% propylene glycol): 120 µg/mL
- Hydrolysis Product ([7]; 60% propylene glycol): 110 µg/mL
- Hydrolysis Product ([7]; 70% propylene glycol): 100 µg/mL
